Assays:
Type in all cases: in vivo
[1] = test system: four weed species (ABUTH, CHEAL, SETVI, XANST); test: Glasshouse adjuvant test with fomesafen (Example 3), mean across species; details: fomesafen 60 or 120 g/ha, adjuvant 0.2% v/v or none
Procedure: (§1) Compound No. 2 was tested in a glasshouse against four weed species in combination with the herbicide fomesafen. An agrochemical composition was prepared containing 0.2% v/v of the adjuvant in a track sprayer and was applied at a volume of 200 liters per hectare. Fomesafen was applied at either 60 or 120 grams of pesticide per hectare on weeds which had been grown to the 1.3 or 1.4 leaf stage. The weed species were Chenopodium album (CHEAL), Abutilon theophrasti (ABUTH), Setaria viridis (SETVI), and Xanthium strumarium (XANST).
(§2) Each spray test was replicated six times. The efficacy of the herbicide was assessed visually and expressed as a percentage of the leaf area killed. Samples were assessed at time periods of 7 and 14 days following application. The results shown in Table 3 below are mean averages over the two rates of fomesafen, six replicates and the two assessment timings, and are compared to the efficacy of fomesafen in the absence of adjuvant.

[2] = test system: Digitaria sanguinalis (DIGSA); test: Glasshouse adjuvant test with nicosulfuron (Example 2); details: nicosulfuron 30 or 60 g/ha, adjuvant 0.2% v/v, 200 l/ha; leaf area killed; mean over two rates, three replicates, 7, 14 and 21 days
Procedure: (§3) Compound No. 2 (see Example 1 and Table 1 above) was tested in a glasshouse against four weed species in combination with the herbicide nicosulfuron. An agrochemical composition was prepared containing 0.2% v/v of the adjuvant in a track sprayer and was applied at a volume of 200 liters per hectare. Nicosulfuron was applied at either 30 or 60 grams of pesticide per hectare on weeds which had been grown to the 1.3 or 1.4 leaf stage. The weed species were Chenopodium album (CHEAL), Abutilon theophrasti (ABUTH), […] (BRAPP), and Digitaria sanguinalis (DIGSA).
(§4) Each spray test was replicated three times. The efficacy of the herbicide was assessed visually and expressed as a percentage of the leaf area killed. Samples were assessed at time periods of 7, 14 and 21 days. following application. The results shown in Table 2 below are mean averages over the two rates of nicosulfuron, three replicates and the three assessment timings.

[3] = test system: Chenopodium album (CHEAL); test: as above; details: nicosulfuron 30 or 60 g/ha, adjuvant 0.2% v/v, 200 l/ha; leaf area killed; mean over two rates, three replicates, 7, 14 and 21 days
Procedure: as §3, §4

[4] = test system: Abutilon theophrasti (ABUTH); test: as above; details: nicosulfuron 30 or 60 g/ha, adjuvant 0.2% v/v, 200 l/ha; leaf area killed; mean over two rates, three replicates, 7, 14 and 21 days
Procedure: as §3, §4

Brassica perenni (BRAPP) = test: as above; details: nicosulfuron 30 or 60 g/ha, adjuvant 0.2% v/v, 200 l/ha; leaf area killed; mean over two rates, three replicates, 7, 14 and 21 days
Procedure: as §3, §4

[5] = test system: Xanthium strumarium (XANST); test: Glasshouse adjuvant test with fomesafen (Example 3); details: fomesafen 60 or 120 g/ha, adjuvant 0.2% v/v or none, 200 l/ha; leaf area killed; mean over two rates, six replicates, 7 and 14 days
Procedure: as §1, §2

[6] = test system: Chenopodium album (CHEAL); test: as above; details: fomesafen 60 or 120 g/ha, adjuvant 0.2% v/v or none, 200 l/ha; leaf area killed; mean over two rates, six replicates, 7 and 14 days
Procedure: as §1, §2

[7] = test system: Abutilon theophrasti (ABUTH); test: as above; details: fomesafen 60 or 120 g/ha, adjuvant 0.2% v/v or none, 200 l/ha; leaf area killed; mean over two rates, six replicates, 7 and 14 days
Procedure: as §1, §2

Setaria viridis (SETVI) = test: as above; details: fomesafen 60 or 120 g/ha, adjuvant 0.2% v/v or none, 200 l/ha; leaf area killed; mean over two rates, six replicates, 7 and 14 days
Procedure: as §1, §2

[8] = test system: four weed species (CHEAL, ABUTH, BRAPP, DIGSA); test: Glasshouse adjuvant test with nicosulfuron (Example 2), mean of species
Procedure: as §3, §4

[9] = test system: four weed species (AMARE, ABUTH, BRAPP, DIGSA); test: Glasshouse adjuvant test with mesotrione (Example 4), mean across species; details: mesotrione 60 or 120 g/ha, adjuvant 0.2% v/v
Procedure: (§5) Compound No. 2 was tested in a glasshouse against four weed species in combination with the herbicide mesotrione. An agrochemical composition was prepared containing 0.2% v/v of the adjuvant in a track sprayer and was applied at a volume of 200 liters per hectare. Mesotrione was applied at either 60 or 120 grams of pesticide per hectare on weeds which had been grown to the 1.3 or 1.4 leaf stage. The weed species were Amaranthus retroflexus (AMARE), Abutilon theophrasti (ABUTH), Brachiaria platyphylla (BRAPP), and Digitaria sanguinalis (DIGSA).
(§6) Each spray test was replicated six times. The efficacy of the herbicide was assessed visually and expressed as a percentage of the leaf area killed. Samples were assessed at time periods of 6, 14 and 21 days following application. The results shown in Table 4 below are mean averages over the two rates of mesotrione, six replicates and the three assessment timings. The results are compared to those obtained for mesotrione in combination with the commercially available tank mix adjuvant Turbocharge® D (Syngenta Crop Protection Canada, Inc.).

[10] = test system: Digitaria sanguinalis (DIGSA); test: Glasshouse adjuvant test with mesotrione (Example 4); details: mesotrione 60 or 120 g/ha, adjuvant 0.2% v/v, 200 l/ha; leaf area killed; mean over two rates, six replicates, 6, 14 and 21 days
Procedure: as §5, §6

[11] = test system: Abutilon theophrasti (ABUTH); test: as above; details: mesotrione 60 or 120 g/ha, adjuvant 0.2% v/v, 200 l/ha; leaf area killed; mean over two rates, six replicates, 6, 14 and 21 days
Procedure: as §5, §6

[12] = test system: Brachiaria platyphylla (BRAPP); test: as above; details: mesotrione 60 or 120 g/ha, adjuvant 0.2% v/v, 200 l/ha; leaf area killed; mean over two rates, six replicates, 6, 14 and 21 days
Procedure: as §5, §6

[13] = test system: Amaranthus retroflexus (AMARE); test: as above; details: mesotrione 60 or 120 g/ha, adjuvant 0.2% v/v, 200 l/ha; leaf area killed; mean over two rates, six replicates, 6, 14 and 21 days
Procedure: as §5, §6

## CCCCCCCCCCCCc1ccc(C(=O)NCCOCCOCCOCCOCCOCCOCCOCCO)cc1 [Compound 2, 4-DODECYL-N-[2-(2-{2-[2-(2-{2-[2-(2-HYDROXY-ETHOXY)-ETHOXY]-ETHOXY}-ETHOXY)-ETHOXY]-ETHOXY}-ETHOXY)-ETHYL]-BENZAMIDE]
[1]
  Mean percentage kill, Mean across species: 58.6%
[2]
  Mean percentage kill DIGSA: 83.1%
[3]
  Mean percentage kill CHEAL: 80%
[4]
  Mean percentage kill ABUTH: 47.1%
Brassica perenni (BRAPP)
  Mean percentage kill BRAPP: 86.4%
[5]
  Mean percentage kill XANST: 68.8%
[6]
  Mean percentage kill CHEAL: 34.1%
[7]
  Mean percentage kill ABUTH: 90%
Setaria viridis (SETVI)
  Mean percentage kill SETVI: 41.7%
[8]; nicosulfuron 30 or 60 g/ha, adjuvant 0.2% v/v, mean of the four weed species
  Mean percentage kill, Mean (g/ha): 73.9%
[8]; nicosulfuron formulation with adjuvant, in each case (all four weed species)
  weed control compared to Turbocharge D: superior weed control
[9]
  Mean percentage kill, Mean across species: 72.1%
[10]
  Mean percentage kill DIGSA: 83.4%
[11]
  Mean percentage kill ABUTH: 73.3%
[12]
  Mean percentage kill BRAPP: 68.2%
[13]
  Mean percentage kill AMARE: 63.5%

Source: US10051857B2, “Formulation component” (SYNGENTA LIMITED, priority 2011, dated 2018)
